# Results as given in patent US7375232B2, “Ortho-heterocyclic substituted aryl amides for controlling invertebrate pests” (E.I. du Pont de Nemours and Company, priority 2001, dated 2008).
smiles,measurement,value
Cc1cc(Cl)cc(-n2cccn2)c1NC(=O)c1cc(C(F)(F)F)nn1-c1ccccc1Cl [Compound 16],melting point,87 to 89 °C
